In PMC7232676, “Fragment-Based Design of Mycobacterium tuberculosis InhA Inhibitors” (Journal of Medicinal Chemistry, 2020):
Read-outs that look alike come from different tables or passages of the source.

How the values were obtained:
[1] = biological target: InhA (Mycobacterium tuberculosis, UniProt P9WGR1); test: InhA enzymatic assay (NADH oxidation at 340 nm, 2-trans-octanoyl-CoA substrate); format: biochemical
Procedure: The identified fragment hits were further evaluated by an InhA enzymatic assay using 2-trans-octanoyl-CoA as a substrate.[22]
The carboxylic acid in fragment 1 (P1) was replaced by an isosteric sulfonamide as a linker to synthesize compound 6 (Figure 2b). Docking experiments with Glide XP[23] […] All the synthesized compounds were tested at a concentration of 100 μM using the InhA enzymatic assay.
InhA activity was followed by a colorimetric assay that measured the oxidation of NADH at 340 nm in the presence of 2-trans-octanoyl-CoA as described before in a buffer that contained 30 mM PIPES, pH 7.5, 50 mM NaCl, 0.1 mM EDTA, and 100 nM InhA.[26] This was preincubated for 10 min at room temperature with 0.25 mM NADH and varying concentrations of the compounds with 1% (v/v) DMSO in a 150 μL reaction volume. The reaction was started by the addition of 2-trans-octanoyl-CoA at a final concentration of 1.5 mM, prepared as described previously.[22] Reactions were followed for 20 min using a plate reader (CLARIOstar, BMG LABTECH).

[2] = tested on: M. tuberculosis H37Ra; test: Growth inhibition of M. tuberculosis H37Ra, 48 h cultivation; format: cell-based, Mycobacterium tuberculosis; conditions: Mycobacterium tuberculosis, H37RA; 200 μM compound in the media, 48 h cultivation
Procedure: (§1) Further analysis of the effect on the synthesis of mycolic acids by metabolic labeling[24],[25] of the model strain M. tuberculosis H37Ra with ^14C acetate was also explored. A 48 h cultivation in the presence of 200 μM of the compounds in the media led to 84% growth inhibition for compound 19; 40% and 33% growth inhibition for compounds 14 and 23, respectively; 38% growth inhibition for compound 24 and isoniazid; 23% growth inhibition for compounds 25 and 26.
(§2) The culture of M. tuberculosis H37Ra was grown statically at 37 °C in Middlebrook 7H9 broth (Difco) supplemented with albumin–dextrose–catalase and 0.05% Tween 80. When the culture reached the OD600nm value of 0.290, it was divided into 10 mL aliquots and tested compounds dissolved in DMSO were added at 200 μM final concentrations, while isoniazid that served as a control inhibitor was at 40 μM. The final concentration of DMSO in each culture was at 1%. After 24 h of cultivation with shaking (120 rpm) in the presence of tested inhibitors, ^14C acetate (specific activity of 106 mCi/mmol) was added at a final concentration of 0.5 μCi/mL and the cells were cultivated for the next 24 h.

[3] = tested on: trehalose monomycolates and dimycolates in M. tuberculosis H37Ra; test: Metabolic labeling with 14C acetate, TLC of lipid profiles (TMM, TDM); format: cell-based, Mycobacterium tuberculosis; conditions: 200 μM compound, 14C acetate labeling
From the text: (§3) Figure 5 (A) TLC of the metabolic labeling experiments of M. tuberculosis H37Ra with ^14C acetate treated with the compounds 14, 19, and 23–26 for the analysis of mycolic acid inhibition. Fatty acid methyl esters, FAME; mycolic acid methyl esters, MAME; isoniazid, INH. (B) TLC of the metabolic labeling experiments of M. tuberculosis H37Ra with ^14C acetate treated with the compounds 14, 19, and 23–26 for the analysis of the lipid inhibition. Trehalose monomycolates, TMM; trehalose dimycolates, TDM; phosphatidylethanolamine, PE; cardiolipin, CL; isoniazid, INH.
as §2, with “After 24 h of cultivation with shaking (120 rpm) in the presence of tested inhibitors, ^14C acetate (specific activity of 106 mCi/mmol) was added at a final concentration of 0.5 μCi/mL and the cells were cultivated for the next 24 h.” left out
Lipids were extracted from whole cells as described earlier with minor modifications.[24] […] Five μL of each lipid sample was loaded on the thin-layer chromatography (TLC) silica gel plates (F254, Merck); lipids were separated in chloroform/methanol/water [20:4:0.5] and detected by autoradiography.

[4] = tested on: synthesis of mycolic acids in M. tuberculosis H37Ra; test: Metabolic labeling with 14C acetate, TLC of FAME/MAME (mycolic acid synthesis); format: cell-based, Mycobacterium tuberculosis; conditions: 200 μM compound, 14C acetate labeling
Procedure: as §1, §3
The culture of M. tuberculosis H37Ra was grown statically at 37 °C in Middlebrook 7H9 broth (Difco) supplemented with albumin–dextrose–catalase and 0.05% Tween 80. […]
Fatty acid methyl esters (FAMEs) and mycolic acids methyl esters (MAMEs) were prepared from whole cells harvested from 4 mL culture aliquots as previously described.[32] […] 3× and detected by autoradiography.

Chain of InhA (P9WGR1 whole entry, looked up, the tested form may be a part): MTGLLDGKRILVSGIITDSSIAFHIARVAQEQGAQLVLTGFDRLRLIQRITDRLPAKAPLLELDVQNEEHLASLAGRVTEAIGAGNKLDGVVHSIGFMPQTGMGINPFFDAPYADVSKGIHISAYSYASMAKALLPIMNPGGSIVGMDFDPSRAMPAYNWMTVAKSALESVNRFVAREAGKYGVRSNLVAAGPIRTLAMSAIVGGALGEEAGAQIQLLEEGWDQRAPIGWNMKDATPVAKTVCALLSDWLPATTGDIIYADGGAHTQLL

Question: For `NCc1cccc(NS(=O)(=O)/C=C/c2cccc(C(F)(F)F)c2)c1` [compound 19, (E)-N-(3-(Aminomethyl)phenyl)-2-(3-(trifluoromethyl)phenyl)ethene-1-sulfonamide], which inhibition at 100 µM ([1]; 100 μM compound, read-out: Inh % (inhibition percentage of InhA)) is on record?
Answer: > 90%

Question: And the “LE (ligand efficiency)” value ([1]; LE = (1.37 × pIC50)/HA)?
Answer: 0.31

Question: And the IC50 ([1]; average of three experiments)?
Answer: 4 µM

Question: What about the inhibition at 100 µM ([1]; supplementary CSV, read-out: % inhibition) of the same compound?
Answer: > 90%

Question: What about the inhibition at 200 µM [2] of the same compound?
Answer: 84%

Question: And the “amount of trehalose dimycolates (TDM)” value [3]?
Answer: decrease

Question: And the “amount of trehalose monomycolates (TMM)” value [3]?
Answer: accumulation

Question: What about the “effect on synthesis of mycolic acids” value [4] of the same compound?
Answer: slight inhibition
